Patent US9617262B2, “Antibacterial cyclopental[C]pyrrole substituted 3,4-dihydro-1H-[1,8]naphthyridinones” (Janssen Sciences Ireland UC, priority 2011, dated 2017)

Key:
S. aureus = experiment: Antibacterial susceptibility testing: IC90 determination with 10% human serum (STA + 10% HS); format: cell-based, Staphylococcus aureus; conditions: human serum at a final concentration of 10%
Description: (§1) The following bacteria were used: Staphylococcus aureus ATCC 29213, methicillin-resistant Staphylococcus aureus (MRSA) ATCC 700788 and Escherichia coli ATCC 35218. The bacteria used in this study were grown overnight in flasks containing 100 ml Mueller-Hinton broth (Difco cat. nr. 0757-17) in sterile de-ionized water, with shaking, at 37° C. Stocks were store at −70° C. until use.
(§2) Bacteria were incubated on a tryptic soy agar plate containing 5% sheep blood (Becton Dickinson cat. nr. 254053) for 18-24 hours at 35° C. in aerobic conditions (first passage). For the second passage, fresh Mueller-Hinton broth is inoculated with 5-10 colonies and grown overnight at 35° C. until turbidity (reaching log-phase) in aerobic conditions is reached. The bacterial suspension is then adjusted to 0.5 McFarland density and further diluted 1:100 in Mueller Hinton broth medium. This is used as inoculum.
(§3) MIC assays were performed by the broth microdilution method in a 96-well format (flat-bottom microtitre plates) with a final volume of 0.1 ml Mueller Hinton broth containing two-fold serial dilutions of compounds and inoculated with 5×10^5 CFU/ml of bacteria (standard inoculum size according to CLSI guidelines). Inhibitors are typically varied over the range of 63 to 0.49 μM. The final DMSO concentration in the assay was 1.25% (maximum tolerable DMSO concentration=6%). In the assays where the effect of human serum on the activity of the compounds against S. aureus was tested, human serum was added at a final concentration of 10%. The plates were incubated at 35° C. for 16-20 hours. At the end of incubation the bacterial growth was quantified fluorometrically. For this, resazurin was added to all wells and the plates were re-incubated. The incubation time is dependent on the type of bacteria. A change in color from blue to pink indicated the growth of bacteria. The fluorescence was read in computer-controlled fluorometer (Fluoroskan Ascent FL, Labsystems) at an excitation wavelength 540 nm and an emission wavelength of 590 nm. The % growth inhibition achieved by the compounds was calculated according to standard methods. The IC90 (expressed in μg/ml) was defined as the 90% inhibitory concentration for bacterial growth. A panel of reference compounds were simultaneously tested for QC approval.
The results are depicted in the table D2 below (STA+10% HS).

Human HelaM cells = experiment: Cytotoxicity MTT assay (TOX HELAM); format: cell-based; conditions: 72 hours
Description: Cytotoxicity of the compounds was evaluated using the MTT assay. Human HelaM cells grown in 96-well plates were exposed to serial dilutions of the tested compounds (final volume of 0.2 ml) and incubated for 72 hours at 37° C. and 5% CO2. Inhibitors are typically varied over the range of 25 to 0.8 μM. The final DMSO concentration in the assay is 0.5%. MTT (3-(4,5-Dimethylthiazol-2-yl)-2,5-diphenyltetrazolium bromide, a tetrazole) was added and reduced to purple formazan only in living cells. Solubilization of the formazan crystals was achieved by adding 100 μl 2-propanol. Cell viability was determined by measuring the absorbance of the reduced formazan, giving a purple color, at 540 nm and 690 nm. The absorbance measured at 690 nm was automatically subtracted from the absorbance at 540 nm, to eliminate the effects of non-specific absorption. The percent cytotoxicity achieved by the compounds was calculated according to standard methods. Cytotoxicity is reported as CC50, the concentration that causes a 50% reduction in cell viability.
The results are depicted in the table D2 below (TOX HELAM).

[1] = system: Staphylococcus aureus ATCC 29213; experiment: Antibacterial susceptibility testing: IC90 determination (STA); format: cell-based; conditions: STA ATCC 29213, 90% inhibitory concentration for bacterial growth
Description: as §1, §2, §3

[2] = biological target: S. aureus ATCC 29213 FabI (Staphylococcus aureus (strain MRSA252), UniProt Q6GI75); experiment: Staphylococcus aureus FabI enzyme inhibition assay; format: biochemical; conditions: pH 6.5, 30 minutes at room temperature
Description: FabI enzyme inhibition assays were carried out in half-area, 384-well microtitre plates. Compounds were evaluated in 40-μl assay mixtures containing 100 mM NaADA, pH 6.5 (ADA=N-[2-acetamido]-2iminodiacetic acid), 250 μM crotonoyl-CoA, 625 μM NADH and 50 μg/ml S. aureus ATCC 29213 FabI. Inhibitors were typically varied over the range of 50 to 0.39 μM. The reaction mixtures were incubated for 30 minutes at room temperature and the reaction was stopped by adding 200 mM Tris buffer (pH 9.0) to create a pH-shift. The consumption of NADH was monitored by measuring the change in absorbance at […]. By comparing sample readings to those of negative (absence of compound) and positive (absence of enzyme) controls, the percent inhibition of enzymatic activity of the compounds was determined. A best-fit curve is fitted by a minimum of squares method. From this an IC50-value (expressed in μg/ml), resulting in 50% inhibition of enzymatic activity, was obtained.

O=C1CCc2cc(/C=C/C(=O)N3CC4C=C(c5cccnc5)CC4C3)cnc2N1 (racemic) [compound 26]
STA + 10% HS (361.169) IC90 (S. aureus): 1.11 µg/mL | TOX HELAM (222.125) CC50 (Human HelaM cells): >3.8646 µg/mL | STA (361.159) IC90 [1]: 1.11 µg/mL | FabI IC50 [2]: 0.41 µg/mL

O=C1CCc2cc(/C=C/C(=O)N3C[C@H]4CC(c5ccccc5)=C[C@H]4C3)cnc2N1 (single isomer, unassigned) [compound 13]
STA + 10% HS (361.169) IC90 (S. aureus): 0.43 µg/mL | TOX HELAM (222.125) CC50 (Human HelaM cells): >9.683 µg/mL | STA (361.159) IC90 [1]: 0.31 µg/mL | FabI IC50 [2]: 0.39 µg/mL

O=C1CCc2cc(/C=C/C(=O)N3C[C@H]4CC(c5ccncc5)=C[C@H]4C3)cnc2N1 (single isomer, unassigned) [compound 40]
FabI IC50 [2]: 0.39 µg/mL

O=C1CCc2cc(/C=C/C(=O)N3CC4C=C(c5cccs5)CC4C3)cnc2N1 (stereo not drawn) [compound 3]
STA + 10% HS (361.169) IC90 (S. aureus): 0.06 µg/mL | TOX HELAM (222.125) CC50 (Human HelaM cells): >3.256 µg/mL | STA (361.159) IC90 [1]: 0.03 µg/mL | FabI IC50 [2]: 0.29 µg/mL

O=C1CCc2cc(/C=C/C(=O)N3C[C@@H]4CN(c5cccs5)C[C@@H]4C3)cnc2N1 [compound 4]
FabI IC50 [2]: 0.70 µg/mL

O=C1CCc2cc(/C=C/C(=O)N3C[C@H]4CN(Cc5cccs5)C[C@H]4C3)cnc2N1 [compound 6]
FabI IC50 [2]: 3.73 µg/mL

COc1ccccc1N1C[C@H]2CN(C(=O)/C=C/c3cnc4c(c3)CCC(=O)N4)C[C@H]2C1 [compound 8]
STA + 10% HS (361.169) IC90 (S. aureus): 1.52 µg/mL | TOX HELAM (222.125) CC50 (Human HelaM cells): >10.5122 µg/mL | STA (361.159) IC90 [1]: 1.15 µg/mL | FabI IC50 [2]: 0.50 µg/mL

O=C1CCc2cc(/C=C/C(=O)N3CC4C=C(c5ccccc5Cl)CC4C3)cnc2N1 (stereo not drawn) [compound 9]
STA + 10% HS (361.169) IC90 (S. aureus): 0.69 µg/mL | TOX HELAM (222.125) CC50 (Human HelaM cells): 4.77 µg/mL | STA (361.159) IC90 [1]: 0.33 µg/mL | FabI IC50 [2]: 0.75 µg/mL

Cc1ccccc1C1=CC2CN(C(=O)/C=C/c3cnc4c(c3)CCC(=O)N4)CC2C1 (stereo not drawn) [compound 11]
STA + 10% HS (361.169) IC90 (S. aureus): 1.76 µg/mL | TOX HELAM (222.125) CC50 (Human HelaM cells): 6.19 µg/mL | STA (361.159) IC90 [1]: 0.37 µg/mL | FabI IC50 [2]: 0.48 µg/mL

Cn1nccc1C1=CC2CN(C(=O)/C=C/c3cnc4c(c3)CCC(=O)N4)CC2C1 (stereo not drawn) [compound 15]
STA + 10% HS (361.169) IC90 (S. aureus): 0.72 µg/mL | TOX HELAM (222.125) CC50 (Human HelaM cells): >9.783 µg/mL | STA (361.159) IC90 [1]: 0.74 µg/mL | FabI IC50 [2]: 0.48 µg/mL

Cc1ccccc1N1C[C@H]2CN(C(=O)/C=C/c3cnc4c(c3)CCC(=O)N4)C[C@H]2C1 [compound 17]
STA + 10% HS (361.169) IC90 (S. aureus): 0.38 µg/mL | TOX HELAM (222.125) CC50 (Human HelaM cells): >10.1103 µg/mL | STA (361.159) IC90 [1]: 0.37 µg/mL | FabI IC50 [2]: 0.38 µg/mL

O=C1CCc2cc(/C=C/C(=O)N3C[C@@H]4CN(c5ccccc5Cl)C[C@@H]4C3)cnc2N1 [compound 18]
STA + 10% HS (361.169) IC90 (S. aureus): 0.37 µg/mL | TOX HELAM (222.125) CC50 (Human HelaM cells): >10.6233 µg/mL | STA (361.159) IC90 [1]: 0.21 µg/mL | FabI IC50 [2]: 0.44 µg/mL

O=C1CCc2cc(/C=C/C(=O)N3CC4C=C(c5ccco5)CC4C3)cnc2N1 (stereo not drawn) [compound 19]
STA + 10% HS (361.169) IC90 (S. aureus): 0.12 µg/mL | TOX HELAM (222.125) CC50 (Human HelaM cells): >9.43 µg/mL | STA (361.159) IC90 [1]: 0.18 µg/mL | FabI IC50 [2]: ~0.62 µg/mL

O=C1CCc2cc(/C=C/C(=O)N3C[C@@H]4CN(c5cccnc5)C[C@@H]4C3)cnc2N1 [compound 20]
FabI IC50 [2]: 1.07 µg/mL

Cn1cc(C2=CC3CN(C(=O)/C=C/c4cnc5c(c4)CCC(=O)N5)CC3C2)cn1 (stereo not drawn) [compound 27]
FabI IC50 [2]: 0.6 µg/mL

O=C1CCc2cc(/C=C/C(=O)N3CC4CC(n5cccn5)CC4C3)cnc2N1 (stereo not drawn) [compound 29]
FabI IC50 [2]: 1.04 µg/mL

C#CN1C[C@@H]2CN(C(=O)/C=C/c3cnc4c(c3)CCC(=O)N4)C[C@@H]2C1 [compound 30]
FabI IC50 [2]: 2.66 µg/mL

COC1CC2CN(C(=O)/C=C/c3cnc4c(c3)CCC(=O)N4)CC2C1 (stereo not drawn) [compound 31]
FabI IC50 [2]: 1.42 µg/mL

O=C1CCc2cc(/C=C/C(=O)N3CC4C=C(c5nccs5)CC4C3)cnc2N1 (stereo not drawn) [compound 32]
FabI IC50 [2]: 0.46 µg/mL

O=C1CCc2cc(/C=C/C(=O)N3C[C@@H]4CN(S(=O)(=O)c5ccccc5)C[C@@H]4C3)cnc2N1 [compound 33]
FabI IC50 [2]: 3.06 µg/mL

O=C1CCc2cc(/C=C/C(=O)N3CC4CC(F)(F)CC4C3)cnc2N1 (stereo not drawn) [compound 34]
FabI IC50 [2]: 1.67 µg/mL

O=C1CCc2cc(/C=C/C(=O)N3C[C@@H]4CN(c5ccc(Cl)cc5)C[C@@H]4C3)cnc2N1 [compound 35]
FabI IC50 [2]: 1.25 µg/mL

O=C1CCc2cc(/C=C/C(=O)N3C[C@@H]4CN(c5cccc(Cl)c5)C[C@@H]4C3)cnc2N1 [compound 36]
FabI IC50 [2]: 0.93 µg/mL

O=C1CCc2cc(/C=C/C(=O)N3CC4CC(n5cncn5)CC4C3)cnc2N1 (stereo not drawn) [compound 37]
FabI IC50 [2]: 3.37 µg/mL

O=C1CCc2cc(/C=C/C(=O)N3CC4CC(n5ccnn5)CC4C3)cnc2N1 (stereo not drawn) [compound 38]
FabI IC50 [2]: 2.08 µg/mL

O=C1CCc2cc(/C=C/C(=O)N3CC4CC(n5nccn5)CC4C3)cnc2N1 (stereo not drawn) [compound 39]
FabI IC50 [2]: 0.56 µg/mL

O=C1CCc2cc(/C=C/C(=O)N3C[C@@H]4CC(c5ccsc5)=C[C@@H]4C3)cnc2N1 [compound 45]
FabI IC50 [2]: 0.45 µg/mL

CC1=CC2CN(C(=O)/C=C/c3cnc4c(c3)CCC(=O)N4)CC2C1 (stereo not drawn) [compound 52]
FabI IC50 [2]: 0.50 µg/mL

O=C1CCc2cc(/C=C/C(=O)N3C[C@H]4CC(Oc5ccccc5)C[C@H]4C3)cnc2N1 (stereo partly drawn) [compound 54]
FabI IC50 [2]: 1.84 µg/mL

Cc1ccc(C2=CC3CN(C(=O)/C=C/c4cnc5c(c4)CCC(=O)N5)CC3C2)o1 (stereo not drawn) [compound 57]
FabI IC50 [2]: 0.62 µg/mL

Cc1cscc1C1=CC2CN(C(=O)/C=C/c3cnc4c(c3)CCC(=O)N4)CC2C1 (stereo not drawn) [compound 60]
FabI IC50 [2]: 0.59 µg/mL

CC(=O)c1ccc(C2=CC3CN(C(=O)/C=C/c4cnc5c(c4)CCC(=O)N5)CC3C2)s1 (stereo not drawn) [compound 62]
FabI IC50 [2]: 0.44 µg/mL

COc1ccsc1C1=CC2CN(C(=O)/C=C/c3cnc4c(c3)CCC(=O)N4)CC2C1 (stereo not drawn) [compound 72]
FabI IC50 [2]: 0.43 µg/mL
